Four compounds from ChEMBL document CHEMBL5465560, “Selectivity Literature for EUbOPEN Chemogenomic Library” (2024) can be followed below.

The target in assay [1] is T1, Bone morphogenetic protein receptor type-2 (Homo sapiens) (UniProt Q13873).
T1 sequence (whole entry): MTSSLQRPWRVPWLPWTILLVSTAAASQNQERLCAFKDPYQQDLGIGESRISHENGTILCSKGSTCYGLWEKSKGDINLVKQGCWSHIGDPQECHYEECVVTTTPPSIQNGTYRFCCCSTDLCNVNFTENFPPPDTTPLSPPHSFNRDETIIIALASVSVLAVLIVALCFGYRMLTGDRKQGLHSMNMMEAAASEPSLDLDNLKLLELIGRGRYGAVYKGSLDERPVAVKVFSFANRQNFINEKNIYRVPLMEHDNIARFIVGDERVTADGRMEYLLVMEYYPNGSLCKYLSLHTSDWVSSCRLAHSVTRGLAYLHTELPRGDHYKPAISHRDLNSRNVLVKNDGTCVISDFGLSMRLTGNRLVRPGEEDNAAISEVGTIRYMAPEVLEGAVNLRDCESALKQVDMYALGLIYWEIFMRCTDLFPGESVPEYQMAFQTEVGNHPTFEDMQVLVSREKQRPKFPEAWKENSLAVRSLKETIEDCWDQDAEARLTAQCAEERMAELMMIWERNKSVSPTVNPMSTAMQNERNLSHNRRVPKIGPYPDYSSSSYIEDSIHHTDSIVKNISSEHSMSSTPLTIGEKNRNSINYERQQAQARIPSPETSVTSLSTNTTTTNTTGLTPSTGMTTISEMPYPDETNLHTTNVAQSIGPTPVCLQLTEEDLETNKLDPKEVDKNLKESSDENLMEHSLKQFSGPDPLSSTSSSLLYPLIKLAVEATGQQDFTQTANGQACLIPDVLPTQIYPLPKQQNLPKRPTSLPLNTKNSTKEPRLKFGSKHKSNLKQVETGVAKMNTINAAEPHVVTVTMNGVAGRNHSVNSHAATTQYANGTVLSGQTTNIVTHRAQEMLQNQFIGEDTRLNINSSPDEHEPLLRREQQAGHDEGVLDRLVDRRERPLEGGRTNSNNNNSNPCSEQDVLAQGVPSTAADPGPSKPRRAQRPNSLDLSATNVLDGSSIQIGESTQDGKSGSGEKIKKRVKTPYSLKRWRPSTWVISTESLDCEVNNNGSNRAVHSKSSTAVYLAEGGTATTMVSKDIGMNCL
To be noted: at 10 µM.

The target in assay [2] is T2, Phosphatidylinositol 4,5-bisphosphate 3-kinase catalytic subunit delta isoform (Homo sapiens) (UniProt O00329).
T2 sequence (whole entry): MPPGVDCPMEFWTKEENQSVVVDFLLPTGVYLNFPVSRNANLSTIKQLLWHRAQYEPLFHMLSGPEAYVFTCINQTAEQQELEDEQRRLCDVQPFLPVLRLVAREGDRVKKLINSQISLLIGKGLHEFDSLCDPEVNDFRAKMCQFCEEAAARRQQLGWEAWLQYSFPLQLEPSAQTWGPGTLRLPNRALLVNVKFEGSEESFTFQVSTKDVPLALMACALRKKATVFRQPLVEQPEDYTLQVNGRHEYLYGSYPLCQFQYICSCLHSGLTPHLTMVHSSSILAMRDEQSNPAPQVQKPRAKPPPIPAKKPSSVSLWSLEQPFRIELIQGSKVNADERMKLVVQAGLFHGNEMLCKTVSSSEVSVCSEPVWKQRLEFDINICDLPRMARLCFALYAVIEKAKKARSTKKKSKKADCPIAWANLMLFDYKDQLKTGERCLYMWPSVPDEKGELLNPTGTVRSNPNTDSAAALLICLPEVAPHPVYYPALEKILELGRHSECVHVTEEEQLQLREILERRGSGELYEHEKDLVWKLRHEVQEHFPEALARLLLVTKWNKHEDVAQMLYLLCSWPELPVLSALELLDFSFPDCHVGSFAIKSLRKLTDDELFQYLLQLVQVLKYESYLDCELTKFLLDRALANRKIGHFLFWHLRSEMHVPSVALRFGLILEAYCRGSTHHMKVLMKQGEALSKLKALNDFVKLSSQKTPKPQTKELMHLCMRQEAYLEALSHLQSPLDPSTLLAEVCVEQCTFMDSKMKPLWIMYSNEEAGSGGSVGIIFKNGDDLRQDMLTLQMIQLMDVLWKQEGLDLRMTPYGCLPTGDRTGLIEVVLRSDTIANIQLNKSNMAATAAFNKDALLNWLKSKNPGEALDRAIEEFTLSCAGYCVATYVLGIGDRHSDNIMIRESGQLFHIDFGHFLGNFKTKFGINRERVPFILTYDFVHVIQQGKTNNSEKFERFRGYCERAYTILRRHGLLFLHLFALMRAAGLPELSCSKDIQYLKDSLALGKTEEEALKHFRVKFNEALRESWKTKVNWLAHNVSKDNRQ
Kind of assay: Selectivity interaction (KinomeScan (DiscoverX)) EUB0000666a PIK3CD. To be noted: at 10 µM.

The target in assay [3] is LIM domain kinase 2 (Homo sapiens) (UniProt P53671). Kind of assay: Selectivity interaction (KinomeScan (DiscoverX)) EUB0000607a LIMK2. To be noted: at 10 µM.
Chain of LIM domain kinase 2 (Homo sapiens) (P53671 whole entry, looked up, the tested form may be a part): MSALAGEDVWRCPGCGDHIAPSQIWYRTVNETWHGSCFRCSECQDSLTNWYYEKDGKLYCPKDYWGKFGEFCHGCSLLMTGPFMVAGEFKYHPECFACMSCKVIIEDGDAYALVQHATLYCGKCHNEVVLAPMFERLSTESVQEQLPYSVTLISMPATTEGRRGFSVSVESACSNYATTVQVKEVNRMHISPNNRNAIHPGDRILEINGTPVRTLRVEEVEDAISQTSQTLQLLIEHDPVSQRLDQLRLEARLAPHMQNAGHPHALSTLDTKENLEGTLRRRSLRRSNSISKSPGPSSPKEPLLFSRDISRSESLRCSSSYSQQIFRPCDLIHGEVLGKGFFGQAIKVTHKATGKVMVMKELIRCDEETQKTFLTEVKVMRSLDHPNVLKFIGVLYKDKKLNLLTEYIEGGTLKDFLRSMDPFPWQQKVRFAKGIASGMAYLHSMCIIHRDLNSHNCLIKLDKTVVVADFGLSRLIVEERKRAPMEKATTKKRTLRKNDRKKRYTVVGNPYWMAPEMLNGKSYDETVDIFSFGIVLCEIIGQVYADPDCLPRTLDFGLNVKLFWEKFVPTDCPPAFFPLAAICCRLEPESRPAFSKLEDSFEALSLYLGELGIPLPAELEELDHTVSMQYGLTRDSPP
Assay [4] concerns Epidermal growth factor receptor (Homo sapiens), P00533 [UNDEFINED MUTATION]. Put plainly: Selectivity interaction (KinomeScan (DiscoverX)) EUB0000607a EGFR. To be noted: at 10 µM.
Chain of Epidermal growth factor receptor (Homo sapiens), P00533 [UNDEFINED MUTATION] (P00533 whole entry, looked up, change not shown): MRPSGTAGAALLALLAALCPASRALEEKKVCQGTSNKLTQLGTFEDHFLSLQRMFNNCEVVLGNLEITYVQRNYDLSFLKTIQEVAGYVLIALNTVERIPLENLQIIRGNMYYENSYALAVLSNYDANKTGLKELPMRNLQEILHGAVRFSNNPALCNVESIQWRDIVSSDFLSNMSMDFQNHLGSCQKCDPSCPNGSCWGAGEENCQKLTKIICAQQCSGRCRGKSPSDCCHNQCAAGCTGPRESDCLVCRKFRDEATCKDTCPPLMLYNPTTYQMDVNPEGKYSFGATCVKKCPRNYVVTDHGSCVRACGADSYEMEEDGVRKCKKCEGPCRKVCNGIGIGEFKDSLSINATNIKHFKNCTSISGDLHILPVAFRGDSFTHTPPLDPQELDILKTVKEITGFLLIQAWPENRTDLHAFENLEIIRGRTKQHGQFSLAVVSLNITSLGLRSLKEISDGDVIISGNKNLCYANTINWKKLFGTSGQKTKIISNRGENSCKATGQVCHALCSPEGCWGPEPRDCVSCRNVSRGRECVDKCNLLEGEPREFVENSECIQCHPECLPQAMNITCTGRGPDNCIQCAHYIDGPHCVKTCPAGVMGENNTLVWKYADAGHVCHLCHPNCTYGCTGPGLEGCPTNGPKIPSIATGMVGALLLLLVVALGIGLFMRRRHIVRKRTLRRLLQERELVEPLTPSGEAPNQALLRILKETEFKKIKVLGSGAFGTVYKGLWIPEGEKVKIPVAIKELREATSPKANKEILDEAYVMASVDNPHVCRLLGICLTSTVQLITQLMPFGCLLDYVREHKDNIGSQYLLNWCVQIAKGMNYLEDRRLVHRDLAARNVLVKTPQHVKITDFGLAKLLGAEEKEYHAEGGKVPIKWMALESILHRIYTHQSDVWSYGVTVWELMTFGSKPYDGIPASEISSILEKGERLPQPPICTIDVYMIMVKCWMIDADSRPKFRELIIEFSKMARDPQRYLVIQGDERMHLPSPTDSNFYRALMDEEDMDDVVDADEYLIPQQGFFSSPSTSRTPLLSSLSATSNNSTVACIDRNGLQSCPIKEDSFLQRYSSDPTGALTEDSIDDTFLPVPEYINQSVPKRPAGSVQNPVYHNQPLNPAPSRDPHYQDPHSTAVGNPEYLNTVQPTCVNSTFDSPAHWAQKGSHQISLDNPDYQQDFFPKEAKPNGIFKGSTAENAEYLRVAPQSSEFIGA
In assay [5] the target is Serine/threonine-protein kinase 10 (Homo sapiens) (UniProt O94804). Put plainly: Selectivity interaction (ActivX KiNativ screen (kinase selectivity in THP-1 cell lysates)) EUB0000639a STK10. Format: subcellular. As to conditions: lysate, at 5 µM.
Chain of Serine/threonine-protein kinase 10 (Homo sapiens) (O94804 whole entry, looked up): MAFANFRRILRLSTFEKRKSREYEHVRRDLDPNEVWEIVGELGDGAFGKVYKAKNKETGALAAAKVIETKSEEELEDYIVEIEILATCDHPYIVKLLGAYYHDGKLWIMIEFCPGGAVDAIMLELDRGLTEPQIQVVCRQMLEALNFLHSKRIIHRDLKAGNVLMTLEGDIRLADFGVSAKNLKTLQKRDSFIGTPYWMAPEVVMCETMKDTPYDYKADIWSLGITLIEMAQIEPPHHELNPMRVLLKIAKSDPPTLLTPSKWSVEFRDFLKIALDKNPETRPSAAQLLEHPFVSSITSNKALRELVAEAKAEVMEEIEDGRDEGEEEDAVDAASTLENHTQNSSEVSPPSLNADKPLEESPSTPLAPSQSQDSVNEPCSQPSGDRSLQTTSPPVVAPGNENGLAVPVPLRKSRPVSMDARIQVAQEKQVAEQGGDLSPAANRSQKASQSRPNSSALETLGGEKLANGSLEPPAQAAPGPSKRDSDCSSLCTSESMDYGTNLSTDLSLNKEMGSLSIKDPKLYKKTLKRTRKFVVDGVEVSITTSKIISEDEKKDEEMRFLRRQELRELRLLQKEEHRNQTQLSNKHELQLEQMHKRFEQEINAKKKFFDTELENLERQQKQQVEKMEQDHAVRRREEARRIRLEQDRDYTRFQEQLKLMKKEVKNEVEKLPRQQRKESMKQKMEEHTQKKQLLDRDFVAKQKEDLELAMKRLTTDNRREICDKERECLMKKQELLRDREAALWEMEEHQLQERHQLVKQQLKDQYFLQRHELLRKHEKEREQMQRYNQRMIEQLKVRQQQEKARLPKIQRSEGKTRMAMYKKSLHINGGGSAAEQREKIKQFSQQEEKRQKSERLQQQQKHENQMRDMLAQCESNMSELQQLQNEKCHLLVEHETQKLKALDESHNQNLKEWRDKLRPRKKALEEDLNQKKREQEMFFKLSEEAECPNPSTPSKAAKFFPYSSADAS

For the compound `CCN(CC)CCCCNc1ncc2cc(-c3cc(OC)cc(OC)c3)c(NC(=O)NC(C)(C)C)nc2n1`, the % of control in assay [1] was determined as 100%. In the case of `O=C(NOC[C@H](O)CO)c1ccc(F)c(F)c1Nc1ccc(I)cc1F`, the % of control in assay [2] was 40%. For the compound `CNC(=O)Nc1ccc(-c2nc(N3CC4CCC(C3)O4)c3cnn(C4CCC5(CC4)OCCO5)c3n2)cc1`, the % of control in assay [3] was 88%; in assay [4], 62%.

With `CC[C@@H]1[C@H](F)C(=O)N[C@@H]1COc1nccc2cc(C(N)=O)c(OC)cc12` [ZIMLOVISERTIB], the % of inhibition in assay [5] is -16.6%.
